# According to US20260234188A1, “CHEMOKINE-BINDING PEPTIDES” (Oxford University Innovation Limited, priority 2022, published 2026):
# “Also recorded” adds a separate entry of the source.
# System: panel of up to 42 human chemokines
# Test: Phage-display next generation sequencing screen of overlapping hexadecapeptide libraries, chemokines displayed on streptavidin beads
# Assay type: binding
# Conditions: log2E greater than 5, chemokines named by first part of UniProt Entry Name
# From the text: FIG. 1. Exemplar results from phage display screens. Phage-display libraries were constructed and analysed as described in (McLaughlin, 2013) (Tonikian, 2007). […] FIG. 1A, CC chemokines against evasin A library. FIG. 1B, CXC chemokines against the evasin B library. FIG. 1C, CXC and CX3C chemokines against the viral chemokine binding protein library. FIG. 1D, CXC chemokines against the chemokine library. […] Identified hexadecapeptides were mapped to the position in the originating protein (x-axis) and to fold enrichment (log 2 E, left y-axis). Regions of interest (ROI) were defined where the cumulative residue log 2 E, (clog 2 E:r, right y-axis) exceeds the 95% upper confidence interval of the median clog 2 E:r for the entire protein (indicated as a horizontal dotted line in each panel). Proteins are referred to by their UniProt ID.
# Hexadecapeptides were identified using a phage-display next generation sequencing approach (McLaughlin, 2013). Libraries containing a total of 55662 overlapping peptides (from the tick chemokine binding proteins shown in Tables 3A and 3B, the viral chemokine binding proteins shown in Table 3C, the human chemokines shown in Table 3 E, and the human/viral chemokine receptors and other chemokine-binding proteins shown in Table 3D) were first constructed, and then screened against a panel of up to 42 human chemokines, as shown in Table 3F.
row,Substance,Chemokines Bound
1,CR362 (AEIYEYLFFFSFFFLA),"CCL22, CXL11,; also recorded: CXL13"
2,CR498 (AFLWGIFPTVIFSYFY),"CCL17, CCL18,; also recorded: CCL19, CCL20,; also recorded: CCL25, CXL13"
3,CR2290 (AWFLPIMYSIICFVGL),"CCL20, CCL22, and CCL25, CCL28, and X3CL1, CXL10, and CXL11, SDF1, and CXL13, CXL14, and IL8"
4,CR2291 (AWFLPIMYSIISFVGL),"CCL1, CCL11, and IL8"
5,CR2301 (AWLPYYIGISIDSFIL),"CCL17, CCL19,; also recorded: CCL20"
6,CR2340 (AYDLFIGIKIVYCFLW),"CCL15, CCL17, and CCL18, CCL19, and CCL20, CCL22, and CCL25, CCL28, and X3CL1, CXL10, and CXL11, SDF1, and CXL13, CXL14, and IL8"
7,CR2439 (CALVTLITSLFGSIFK),"CCL17, CCL18, and CCL19, CCL20, and CXL10, SDF1, and CXL13, CXL14, and IL8"
8,CR2524 (CFLWGIFPTVIFSYFY),"CCL22, CCL25, and CXL13, CXL14, and IL8"
9,CR2553 (CGIITSVLAWVTAILA),"CCL11, CCL2, and CCL20, CCL22, and CCL28, CCL8, and X3CL1, CXL10, and SDF1, CXL14, and IL8"
10,CR2586 (CILVWLLAFCVSLPDT),"CCL20, CCL28,; also recorded: CXL10, CXL11,; also recorded: CXL14"
11,CR3107 (DFAAILLYIDDFSAYF),"CCL18, X3CL1,; also recorded: CXL13"
12,CR3135 (DFLCKLLNMIFSISLY),"CCL17, CCL22,; also recorded: CCL25, CCL28,; also recorded: CXL11, IL8"
13,CR3146 (DFLSKLLNMIFSISLY),"CCL17, CCL18,; also recorded: CCL19, CCL2,; also recorded: CCL20, CXL14"
14,CR3161 (DFSAILLYIDDFSAYF),"CCL17, CCL18,; also recorded: X3CL1, CXL10,; also recorded: SDF1, CXL13,; also recorded: CXL14"
15,CR3302 (DLFIGIKIVYSFLWGI),"CCL1, CCL17,; also recorded: CCL18, CCL20,; also recorded: CCL22, CCL28,; also recorded: CXL10, CXL11,; also recorded: CXL13, IL8"
16,CR3373 (DLTNWKLLAEIYEYLF),"CCL2, CCL22, and CCL28, CXL10, and CXL11, SDF1, and CXL13, CXL14, and IL8"
17,CR3716 (DVYLLNLAISDLLFVF),"CCL11, CCL2,; also recorded: CCL8, CXL11"
18,CR3800 (DYSIILMFLSDFSFIF),"CCL1, CCL11, and CCL15, CCL18, and CCL28, X3CL1, and CXL10, CXL11, and SDF1, CXL13, and IL8"
19,CR4135 (EIYEYLFFFSFFFLAL),"CCL20, CCL25,; also recorded: CXL11, CXL13"
20,CR4205 (ELFLAVKIVFSFIWGV),"CCL11, CCL17,; also recorded: CCL18, CCL19,; also recorded: CCL2, CCL20,; also recorded: CCL22, CCL25,; also recorded: CCL28, X3CL1,; also recorded: CXL10, CXL11,; also recorded: SDF1, CXL13,; also recorded: CXL14, IL8"
21,CR4463 (ESLFAALVTLITSLFG),"CCL1, CCL17,; also recorded: CCL18, CCL2,; also recorded: X3CL1, CXL10,; also recorded: CXL11, IL8"
22,CR4465 (ESLFSALVTLITSLFG),"CCL18, CCL8,; also recorded: CXL10"
23,CR4712 (FAIVVAYFLSWGPYNF),"CCL18, CCL19,; also recorded: CCL20, CCL22,; also recorded: CCL25, SDF1"
24,CR4753 (FAQLVYFIYHAVASYS),"CCL2, CXL13, and IL8"
25,CR4754 (FARAIDIIYSLITSAN),"CCL18, CCL28,; also recorded: X3CL1"

row,Substance,Chemokines Bound
1,CR4756 (FASDFVLMWAVFFMTV),"CCL17, X3CL1,; also recorded: CXL10"
2,CR4760 (FASFYLLDFILALVGN),"CCL22, CXL10,; also recorded: CXL11, SDF1,; also recorded: CXL13, IL8"
3,CR4802 (FCALVTLITSLFGSIF),"CCL11, CCL17,; also recorded: CCL18, CCL19,; also recorded: CCL20, CCL22,; also recorded: CCL25, CCL28,; also recorded: CCL8, X3CL1,; also recorded: CXL10, CXL11,; also recorded: SDF1, CXL13,; also recorded: CXL14, IL8"
4,CR4845 (FDFMILNLSFCDLFIC),"X3CL1, CXL13, and IL8"
5,CR5021 (FFSGMLLLLSISIDRY),"CCL18, CCL19,; also recorded: CCL20, CCL28"
6,CR5027 (FFSQLVYFIYHAVSSY),"CCL17, CCL18, and CCL20, CXL10, and CXL11, SDF1, and IL8"
7,CR5055 (FFYYLYVYLDIFSVVA),"CCL18, CCL2, and CCL22, CXL10, and SDF1"
8,CR5077 (FGFFIPLMFMIFSYTF),"CCL18, X3CL1,; also recorded: CXL14"
9,CR5103 (FGLLGNILVVITFAFY),"CCL19, CCL20,; also recorded: CCL22, CCL28,; also recorded: CXL10, SDF1,; also recorded: CXL14"
10,CR5170 (FGVITSIVTWGLAVLA),"X3CL1, CXL10, and IL8"
11,CR5171 (FGVVTSVITWLVAVFA),"CCL11, CCL17, and CCL18, CCL2, and CCL20, CCL22, and CCL25, CCL28, and X3CL1, CXL10, and CXL11, SDF1, and CXL13, CXL14, and IL8"
12,CR5172 (FGVVTSVITWVVAVFA),"CCL1, CCL18, and CXL10, SDF1, and IL8"
13,CR5175: chemokine binding peptide of Table 5A used in FIG. 5 combinations (FGVWLMSIVGTFLNML),"CCL17, CCL22, and IL8"
14,CR5236 (FIFVIGMIANSVVVWV),"CCL19, CCL28,; also recorded: CXL11, SDF1,; also recorded: CXL13, IL8"
15,CR5242 (FIGFFGSIFFITVISI),"CCL17, CCL18,; also recorded: CCL20, X3CL1,; also recorded: CXL13"
16,CR5243 (FIGFFSGIFFIILLTI),"CCL17, CCL18,; also recorded: CCL19, CCL20,; also recorded: CCL22, CXL11,; also recorded: SDF1, CXL14"
17,CR5245 (FIGIKIVYCFLWGIFP),"CCL1, CCL15,; also recorded: CCL17, CCL18,; also recorded: CCL19, CCL20,; also recorded: CCL22, CCL25,; also recorded: CCL28, X3CL1,; also recorded: CXL10, CXL11,; also recorded: SDF1, CXL13,; also recorded: CXL14, IL8"
18,CR5246 (FIGIKIVYSFLWGIFP),"CCL20, CCL22,; also recorded: X3CL1, CXL10,; also recorded: CXL11"
19,CR5262 (FILALVGNTLALWLFI),"CCL22, CCL28,; also recorded: SDF1, IL8"
20,CR5277 (FILYQFELFGFTLIFF),"CCL17, CCL22, and CCL25, CCL28, and CXL10, CXL11, and SDF1"
21,CR5349 (FIYVLMFLCNAIGNSL),"CCL19, CCL20,; also recorded: CXL10"
22,CR5416 (FLAFLRSGYDMWLMLV),"CCL1, CCL11, and CCL17, CCL18, and CCL2, CCL20, and CXL11, CXL13, and IL8"
23,CR5475 (FLFHLAVADLLLVFIL),"CCL20, CCL22,; also recorded: CCL28, CXL10,; also recorded: CXL11, SDF1,; also recorded: CXL14"
24,CR5511 (FLGILGNGLVIIIATF),"CCL20, CCL22, and SDF1"
25,CR5518 (FLGLMASVWTHLGMAL),"CCL2, CXL10,; also recorded: CXL11"

# Same assay, conditions: log2E greater than 5, chemokines named by first part of UniProt entry name, C5a (control) binders excluded
row,Substance,Chemokines Bound
1,CK576 (CADPSESWVQEYVYDL),"CCL17, CCL5,; also recorded: CXL10"
2,CK1301 (FIADYFETSSQCSKPS),"CCL20, CXL10,; also recorded: CXL14, IL8"
3,CK1408 (FSRCCFSFAEQEIPLR),"CCL1, CCL2,; also recorded: CCL8, CXL14"
4,CK1445 (FVVDYYETSSLCSQPA),"CCL19, CCL2, and X3CL1, SDF1, and IL8"
5,CK1982 (IFKTIVAKEICADPKQ),"CCL1, CCL22,; also recorded: CCL5, X3CL1,; also recorded: CXL10, CXL13"
6,CK2307 (IVRNFHYLLIKDGSRV),"CCL19, CCL20,; also recorded: CCL22"
7,CK3115 (LLESYFETNSECSKPG),"CCL19, CCL22,; also recorded: X3CL1, CXL14"
8,CK3274 (LRCVCLQTTQGVHPKM),"X3CL1, CXL10,; also recorded: CXL11"
9,CK3750 (PEWVNTPSTCCLKYYE),"CCL18, CCL19,; also recorded: CCL22, X3CL1"
10,CK4643 (RITNIQCPKEAVIFKT),"CCL1, CCL19,; also recorded: CCL20"
11,CK6066 (VCADPSESWVQEYVYD),"CCL19, CCL28,; also recorded: X3CL1, IL8"
12,CR1003 (ALAFIYVLMFLANAIG),"CCL17, CCL18, and CCL19, CCL20, and CCL28, X3CL1, and CXL10, SDF1, and IL8"
13,CR1004 (ALAFIYVLMFLCNAIG),"CCL17, CCL18,; also recorded: CCL19, CCL20,; also recorded: CXL10, CXL14"
14,CR1005 (ALAFIYVLMFLSNAIG),"CCL19, CCL2,; also recorded: CCL20, CCL28,; also recorded: CXL14"
15,CR1124 (ALIQMLEICIGFVVPF),"CCL18, CCL19,; also recorded: CCL20"
16,CR1325 (ALYSLLFLLGLLGNGA),"CCL17, CCL19,; also recorded: CCL2, CCL20,; also recorded: CCL22, CXL11,; also recorded: CXL14"
17,CR1475 (ANVTFTGLIAAFSWFM),"CCL2, CCL22,; also recorded: CXL11, CXL13"
18,CR1802 (ASMILESLFAALVTLI),"CCL17, CCL18,; also recorded: CCL2, CCL20,; also recorded: CCL22, CCL25,; also recorded: CCL28, CXL10"
19,CR1923 (ATFKILISIVWGVMPV),"CCL18, CCL28,; also recorded: X3CL1, CXL10,; also recorded: CXL11, SDF1,; also recorded: CXL13, IL8"
20,CR2028 (ATSWVVIFWILAALMG),"CCL17, CCL18,; also recorded: CCL19, CCL20,; also recorded: CCL28, SDF1,; also recorded: CXL13, CXL14"
21,CR2051 (ATYMLLVLYYAMLPLM),"CCL20, CCL22,; also recorded: CCL28, X3CL1,; also recorded: CXL10, SDF1,; also recorded: CXL14, IL8"
22,CR2129 (AVFYALLFVFSLLGNS),"CCL15, CCL18, and CCL19, CCL20, and CCL25, CCL28, and SDF1"
23,CR2158 (AVKIVFSFIWGVLPTM),"CCL18, CCL20,; also recorded: SDF1, CXL14"
24,CR2278 (AVWGLSLLFALPDFIF),"CCL18, CCL2,; also recorded: CCL22, CCL28,; also recorded: CXL10, CXL11,; also recorded: SDF1, CXL13,; also recorded: CXL14, IL8"
25,CR2290 (AWFLPIMYSIICFVGL),"CCL1, CCL17,; also recorded: CCL18, CCL19,"
